Measured values reported in US11590116B2 (THERAVANCE BIOPHARMA R&D IP, LLC, priority 2019, dated 2023).

Key:
[1] = system: TGF-β-stimulated SMAD3 phosphorylation in BEAS-2B cells; experiment: Cellular ALK5 potency assay, inhibition of TGF-β stimulated pSMAD3 formation in BEAS-2B cells; format: cell-based; details: Homo sapiens; inhibition of TGF-β stimulated pSMAD3 formation, BEAS-2B cells; read-out: BEAS2B pIC50 (converted)
Summary of the method: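 Cells seeded overnight; rinse with supplemented HBSS; compound 1 h at 37 °C; TGF-β 10 ng/mL final, 30 min; lyse; AlphaLISA acceptor and detector beads 2 h apart, read next day. Potency expressed as pIC50.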

[2] = biological target: T1, recombinant human ALK5 (TGF-βR1) protein (Homo sapiens, UniProt P36897); experiment: Biochemical ALK5 (TGF-βR1) assay to measure pKi (LANCE Ultra ULight kinase assay); details: apparent pKi from pIC50 by Cheng-Prusoff, read-out: ALK5 pKi (converted)
T1 construct: purchased Life Technologies PR9075A
T1 sequence (P36897 34-503): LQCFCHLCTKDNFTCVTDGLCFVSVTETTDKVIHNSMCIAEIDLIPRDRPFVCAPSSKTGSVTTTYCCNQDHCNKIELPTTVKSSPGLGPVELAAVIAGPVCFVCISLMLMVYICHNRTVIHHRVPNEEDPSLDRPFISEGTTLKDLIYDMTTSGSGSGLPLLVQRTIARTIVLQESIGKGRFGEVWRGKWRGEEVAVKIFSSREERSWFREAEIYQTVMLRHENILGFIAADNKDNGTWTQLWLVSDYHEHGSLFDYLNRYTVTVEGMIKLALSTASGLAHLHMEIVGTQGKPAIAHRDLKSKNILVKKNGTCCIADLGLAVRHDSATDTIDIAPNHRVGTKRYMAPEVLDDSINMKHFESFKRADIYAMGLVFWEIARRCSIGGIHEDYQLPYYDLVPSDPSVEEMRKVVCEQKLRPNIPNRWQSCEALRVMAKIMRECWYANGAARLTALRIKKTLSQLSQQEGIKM
Summary of the method: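 Dose range 10 μM–25 pM; enzyme + compound 60 min RT; ATP added (5× stock 125 μM, 2 mM DTT); 60 min 37 °C; stop with EDTA + Eu anti-phospho-Topo IIα Thr1342 Ab; TR-FRET ex 320/340, em 665 nm. 4-param pIC50 → pKi (Cheng-Prusoff).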

| Structure (SMILES) | Ki [2] | IC50 [1] |
| --- | --- | --- |
| Cc1nc(-c2n[nH]cc2-c2ccc3ncc(NCCN4CCN(C(C)C)CC4)cc3c2)ccc1F [Compound 166, 6-[3-(5-fluoro-6-methyl-2-pyridyl)-1H-pyrazol-4-yl]-N-[2-(4-isopropylpiperazin-1-yl)ethyl]quinolin-3-amine] | 0.0398 to 0.316 nM | 25.1 to 158 nM |
| Cc1cccc(-c2n[nH]cc2-c2ccc3nccc(CN4CC(N5CCOCC5)C4)c3n2)n1 [Compound 850, 4-[1-[[6-[3-(6-methyl-2-pyridyl)-1H-pyrazol-4-yl]-1,5-naphthyridin-4-yl]methyl]azetidin-3-yl]morpholine] | 0.398 to 3.16 nM | 200 to 1260 nM |
| Cc1cccc(-c2[nH]nnc2-c2ccc3ncc(-c4cn[nH]c4)cc3n2)n1 [Compound 301, 2-[5-(6-methyl-2-pyridyl)-1H-triazol-4-yl]-7-(1H-pyrazol-4-yl)-1,5-naphthyridine] | 0.0398 to 0.316 nM | 25.1 to 158 nM |
| Cc1cccc(-c2n[nH]cc2-c2ccc3ncc(-c4cc(C(F)(F)F)n[nH]4)cc3n2)n1 [Compound 139, 2-[3-(6-methyl-2-pyridyl)-1H-pyrazol-4-yl]-7-[3-(trifluoromethyl)-1H-pyrazol-5-yl]-1,5-naphthyridine] | 0.0398 to 0.316 nM | 25.1 to 158 nM |
| Cc1cccc(-c2n[nH]cc2-c2ccc3nccc(C4COC5(CCNC5)CN4)c3n2)n1 (centres unmarked) [Compound 862, 8-[6-[3-(6-methyl-2-pyridyl)-1H-pyrazol-4-yl]-1,5-naphthyridin-4-yl]-6-oxa-2,9-diazaspiro[4.5]decane] | 3.98 to 31.6 nM | 200 to 1260 nM |
| Cc1cccc(-c2[nH]cnc2-c2ccc3ncc(N4CCC(C(=O)OC5CCNCC5)CC4)cc3c2)n1 [Compound 701, piperidin-4-yl 1-(6-(5-(6-methylpyridin-2-yl)-1H-imidazol-4-yl)quinolin-3-yl)piperidine-4-carboxylate] | 0.0398 to 0.316 nM | 200 to 1260 nM |
| Cc1cccc(-c2n[nH]cc2-c2ccc3ncc(C4=CCNCC4)cc3n2)n1 [Compound 15, 2-[3-(6-methyl-2-pyridyl)-1H-pyrazol-4-yl]-7-(1,2,3,6-tetrahydropyridin-4-yl)-1,5-naphthyridine] | < 0.0316 nM | < 20 nM |
| Cc1cccc(-c2n[nH]cc2-c2ccc3ncc(CNCCN4CCOCC4)cc3n2)n1 [Compound 633, N-[[6-[3-(6-methyl-2-pyridyl)-1H-pyrazol-4-yl]-1,5-naphthyridin-3-yl]methyl]-2-morpholino-ethanamine] | 0.398 to 3.16 nM | 25.1 to 158 nM |
| Cc1cccc(-c2[nH]cnc2-c2ccc3ncc(-c4ccc(C(=O)OC5CNC5)cc4)cc3c2)n1 [Compound 663, azetidin-3-yl 4-[6-[5-(6-methyl-2-pyridyl)-1H-imidazol-4-yl]-3-quinolyl]benzoate] | 0.0398 to 0.316 nM | 25.1 to 158 nM |
| Cc1cccc(-c2[nH]cnc2-c2ccc3ncc(N4CCC5(CC4)CNC5)cc3c2)n1 [Compound 206, 3-(2,7-diazaspiro [3.5]nonan-7-yl)-6-[5-(6-methyl-2-pyridyl)-1H-imidazol-4-yl]quinoline] | 0.0398 to 0.316 nM | 25.1 to 158 nM |
| Cc1cccc(-c2[nH]cnc2-c2ccc3ncc(-c4csc(C(=O)OC5CCNCC5)n4)cc3c2)n1 [Compound 1146, 4-piperidyl 4-[6-[5-(6-methyl-2-pyridyl)-1H-imidazol-4-yl]-3-quinolyl]thiazole-2-carboxylate] | < 0.0316 nM | 25.1 to 158 nM |

More lines, main results first:

| Ki [2] | Structure (SMILES) | IC50 [1] |
| --- | --- | --- |
| 0.0398 to 0.316 nM | Cc1cccc(-c2[nH]ncc2-c2ccc3ncc(C(=O)O[C@H]4C[C@H](N)C4)cc3c2)n1 [Compound 1181, (3-aminocyclobutyl) 6-[5-(6-methyl-2-pyridyl)-1H-pyrazol-4-yl]quinoline-3-carboxylate] | < 20 nM |
| 0.0398 to 0.316 nM | Cc1cccc(-c2[nH]cnc2-c2ccc3ncc(NCCN4CC5(CCNCC5)C4)cc3c2)n1 [Compound 735, N-[2-(2,7-diazaspiro[3.5]nonan-2-yl)ethyl]-6-[5-(6-methyl-2-pyridyl)-1H-imidazol-4-yl]quinolin-3-amine] | 200 to 1260 nM |
| 0.0398 to 0.316 nM | Cc1cccc(-c2[nH]cnc2-c2ccc3ncc(-c4csc(C(=O)O[C@@H]5CCNC5)n4)cc3c2)n1 [Compound 1104, [(3R)-pyrrolidin-3-yl] 4-[6-[5-(6-methyl-2-pyridyl)-1H-imidazol-4-yl]-3-quinolyl]thiazole-2-carboxylate] | 25.1 to 158 nM |
| < 0.0316 nM | Cc1cccc(-c2[nH]cnc2-c2ccc3ncc(C4=CC[C@H](N)CC4)cc3c2)n1 [Compound 81, (1R)-4-[6-[5-(6-methyl-2-pyridyl)-1H-imidazol-4-yl]-3-quinolyl]cyclohex-3-en-1-amine] | < 20 nM |
| 0.0398 to 0.316 nM | Cc1cccc(-c2[nH]cnc2-c2ccc3ncc(C4=CCC(C(=O)O[C@@H]5CCN(C)C5)CC4)cc3c2)n1 (stereo partly drawn) [Compound 710, [(3R)-1-methylpyrrolidin-3-yl] 4-[6-[5-(6-methyl-2-pyridyl)-1H-imidazol-4-yl]-3-quinolyl]cyclohex-3-ene-1-carboxylate] | 25.1 to 158 nM |
| 0.0398 to 0.316 nM | COC(=O)CC1CN(CCNc2cnc3ccc(-c4nc[nH]c4-c4cccc(C)n4)cc3c2)CCN1 (centres unmarked) [Compound 322, methyl 2-[4-[2-[[6-[5-(6-methyl-2-pyridyl)-1H-imidazol-4-yl]-3-quinolyl]amino]ethyl]piperazin-2-yl]acetate] | 200 to 1260 nM |
| 0.0398 to 0.316 nM | Cc1cccc(-c2[nH]cnc2-c2ccc3ncc(C4=CCC(C(=O)OC5CCNCC5)CC4)cc3c2)n1 (centres unmarked) [Compound 444, 4-piperidyl 4-[6-[5-(6-methyl-2-pyridyl)-1H-imidazol-4-yl]-3-quinolyl]cyclohex-3-ene-1-carboxylate] | 25.1 to 158 nM |
| 0.0398 to 0.316 nM | Cc1cccc(-c2[nH]cnc2-c2ccc3ncc(C4=CCNC4)cc3c2)n1 [Compound 429, 3-(2,5-dihydro-1H-pyrrol-3-yl)-6-[5-(6-methyl-2-pyridyl)-1H-imidazol-4-yl]quinoline] | < 20 nM |
| 0.0398 to 0.316 nM | Cc1cccc(-c2[nH]cnc2-c2ccc3ncc(N4CCN(C)C(CC(=O)O)C4)cc3c2)n1 (centres unmarked) [Compound 688, 2-[1-methyl-4-[6-[5-(6-methyl-2-pyridyl)-1H-imidazol-4-yl]-3-quinolyl]piperazin-2-yl]acetic acid] | 1580 to 10000 nM |
| 0.0398 to 0.316 nM | Cc1nc(-c2n[nH]cc2-c2ccc3ncc(-c4cnc5n4CCCN5)cc3n2)ccc1F [Compound 123, 2-[3-(5-fluoro-6-methyl-2-pyridyl)-1H-pyrazol-4-yl]-7-(5,6,7,8-tetrahydroimidazo[1,2-a]pyrimidin-3-yl)-1,5-naphthyridine] | 25.1 to 158 nM |
| < 0.0316 nM | CNCCn1cc(-c2cnc3ccc(-c4nn[nH]c4-c4cccc(C)n4)cc3c2)cn1 [Compound 125, N-methyl-2-(4-(6-(5-(6-methylpyridin-2-yl)-1H-1,2,3-triazol-4-yl)quinolin-3-yl)-1H-pyrazol-1-yl)ethan-1-amine] | 25.1 to 158 nM |
| < 0.0316 nM | Cc1cccc(-c2[nH]ncc2-c2ccc3ncc(C(=O)OCCN4CCC[C@H](N)C4)cc3c2)n1 [Compound 1191, 2-[(3S)-3-amino-1-piperidyl]ethyl 6-[5-(6-methyl-2-pyridyl)-1H-pyrazol-4-yl]quinoline-3-carboxylate] | 25.1 to 158 nM |
| 0.0398 to 0.316 nM | Cc1cccc(-c2[nH]nnc2-c2ccc3ncc(N4CCC(N5CCN(C)CC5)CC4)cc3c2)n1 [Compound 346, 3-[4-(4-methylpiperazin-1-yl)-1-piperidyl]-6-[5-(6-methyl-2-pyridyl)-1H-triazol-4-yl]quinoline] | 25.1 to 158 nM |
| 0.0398 to 0.316 nM | Cc1cccc(-c2[nH]cnc2-c2ccc3ncc(Nc4nc5n(n4)CCN(C(C)C)C5)cc3c2)n1 [Compound 128, N-(7-isopropyl-6,8-dihydro-5H-[1,2,4]triazolo[1,5-a]pyrazin-2-yl)-6-[5-(6-methyl-2-pyridyl)-1H-imidazol-4-yl]quinolin-3-amine] | 25.1 to 158 nM |
| 3.98 to 31.6 nM | Cc1cccc(-c2[nH]ncc2-c2ccc3ncc(C(=O)N(C)C)cc3n2)n1 [Compound 85, N,N-dimethyl-6-[5-(6-methyl-2-pyridyl)-1H-pyrazol-4-yl]-1,5-naphthyridine-3-carboxamide] | 200 to 1260 nM |
| 3.98 to 31.6 nM | Cc1cccc(-c2c(-c3ccc4ncc(N5CCC(N6CCN(C)CC6)CC5)cc4c3)nnn2Cc2ccccc2)n1 [Compound 578, 6-[1-benzyl-5-(6-methyl-2-pyridyl)triazol-4-yl]-3-[4-(4-methylpiperazin-1-yl)-1-piperidyl]quinoline] | 1580 to 10000 nM |
| 0.0398 to 0.316 nM | Cc1cccc(-c2[nH]cnc2-c2ccc3ncc(N4CCC(C(=O)O[C@@H]5CCNC5)CC4)cc3c2)n1 [Compound 41, [(3R)-pyrrolidin-3-yl] 1-[6-[5-(6-methyl-2-pyridyl)-1H-imidazol-4-yl]-3-quinolyl]piperidine-4-carboxylate] | 25.1 to 158 nM |
